Where two headings read alike, the source gives them in different places.
Key:
Type in all cases: in vivo
corn (Zea mays) = test: Test A postemergence; details: Zea mays, post-emergence, 240 h, Postemergence; for Corn plant response rating (crop injury, 0 = no effect, 100 = complete kill) at 500 g/ha: 500 g ai/ha, visual injury, 0 to 100 scale (0 no effect, 100 complete control), approx. 10 d
Method in brief: (§1)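 Seeds sprayed preemergence with a directed soil spray, or plants at 2 to 10 cm height and one- to two-leaf stage sprayed postemergence, with test chemicals in a non-phytotoxic solvent mixture containing surfactant, in loam soil–sand blend. Injury rated visually against untreated controls after about 10 d in greenhouse, 0 (no effect) to 100 (complete control).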

[1] = system: giant foxtail (Setaria faberii); test: Test A postemergence; details: Setaria faberi, post-emergence, 240 h, Postemergence; for pest or weed control at 125 g/ha: 125 g ai/ha; for pest or weed control at 500 g/ha: 500 g ai/ha, visual injury, 0 to 100 scale (0 no effect, 100 complete control), approx. 10 d
Method in brief: as §1

[2] = system: ragweed (common ragweed, Ambrosia elatior); test: Test A postemergence; details: Ambrosia artemisiifolia, post-emergence, 240 h, Postemergence; for pest or weed control at 125 g/ha: 125 g ai/ha; for pest or weed control at 500 g/ha: 500 g ai/ha, visual injury, 0 to 100 scale (0 no effect, 100 complete control), approx. 10 d
Method in brief: as §1

[3] = system: barnyardgrass (Echinochloa crus-galli); test: Test A postemergence; details: Echinochloa crus-galli, post-emergence, 240 h, Postemergence; for pest or weed control at 125 g/ha: 125 g ai/ha; for pest or weed control at 500 g/ha: 500 g ai/ha, visual injury, 0 to 100 scale (0 no effect, 100 complete control), approx. 10 d
Method in brief: as §1

[4] = system: ryegrass, Italian (Italian ryegrass, Lolium multiflorum); test: Test A postemergence; details: Lolium multiflorum, post-emergence, 240 h, Postemergence; for pest or weed control at 125 g/ha: 125 g ai/ha; for pest or weed control at 500 g/ha: 500 g ai/ha, visual injury, 0 to 100 scale (0 no effect, 100 complete control), approx. 10 d
Method in brief: as §1

[5] = system: blackgrass (Alopecurus myosuroides); test: Test A postemergence; details: Alopecurus myosuroides, post-emergence, 240 h, Postemergence; for pest or weed control at 125 g/ha: 125 g ai/ha; for pest or weed control at 500 g/ha: 500 g ai/ha, visual injury, 0 to 100 scale (0 no effect, 100 complete control), approx. 10 d
Method in brief: as §1

[6] = system: pigweed (Amaranthus retroflexus); test: Test A postemergence; details: Amaranthus retroflexus, post-emergence, 240 h, Postemergence; for pest or weed control at 125 g/ha: 125 g ai/ha; for pest or weed control at 500 g/ha: 500 g ai/ha, visual injury, 0 to 100 scale (0 no effect, 100 complete control), approx. 10 d
Method in brief: as §1

Kochia (Kochia scoparia) = test: Test A postemergence; details: Bassia scoparia, post-emergence, 240 h, Postemergence; for pest or weed control at 125 g/ha: 125 g ai/ha; for pest or weed control at 500 g/ha: 500 g ai/ha, visual injury, 0 to 100 scale (0 no effect, 100 complete control), approx. 10 d
Method in brief: as §1

[7] = system: wheat (Triticum aestivum); test: Test A postemergence; details: Triticum aestivum, post-emergence, 240 h, Postemergence; for plant injury at 125 g/ha: 125 g ai/ha; for plant injury at 500 g/ha: 500 g ai/ha, visual injury, 0 to 100 scale (0 no effect, 100 complete control), approx. 10 d
Method in brief: as §1

[8] = system: Galium (catchweed bedstraw, Galium aparine); test: Test A postemergence; details: Galium, post-emergence, 240 h, Postemergence; for pest or weed control at 125 g/ha: 125 g ai/ha; for pest or weed control at 500 g/ha: 500 g ai/ha, visual injury, 0 to 100 scale (0 no effect, 100 complete control), approx. 10 d
Method in brief: as §1

rice (Oryra sativa) = test: Test B flooded paddy test; details: Oryza sativa, 360 h, Flood, 250 g ai/ha; visually evaluated after 13 to 15 d; read-out: Plant response rating, Rice (0 to 100 scale where 0 is no effect and 100 is complete control)
Method in brief: (§2)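 Plants at 2-leaf stage flooded to 3 cm above soil, with compounds applied directly to paddy water and that depth maintained. Plants kept in greenhouse 13–15 d. Visual rating versus controls on a 0 (no effect) to 100 (complete control) scale.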

[9] = system: ducksalad (Heteranthera limosa); test: Test B flooded paddy test; details: Heteranthera limosa, 360 h, Flood, 250 g ai/ha; visually evaluated after 13 to 15 d; read-out: Plant response rating, Ducksalad (0 to 100 scale where 0 is no effect and 100 is complete control)
Method in brief: as §2

[10] = system: barnyardgrass (Echinochloa crus-galli); test: Test B flooded paddy test; details: Echinochloa crus-galli, 360 h, Flood, 250 g ai/ha; visually evaluated after 13 to 15 d; read-out: Plant response rating, Barnyardgrass (0 to 100 scale where 0 is no effect and 100 is complete control)
Method in brief: as §2

[11] = system: sedge, umbrella (small-flower umbrella sedge, Cyperus difformis); test: Test B flooded paddy test; details: Cyperus difformis, 360 h, Flood, 250 g ai/ha; visually evaluated after 13 to 15 d; read-out: Plant response rating, Sedge, Umbrella (0 to 100 scale where 0 is no effect and 100 is complete control)
Method in brief: as §2

[12] = read-out: Plant response rating, Foxtail, Giant
[13] = read-out: Plant response rating, Ragweed
[14] = read-out: Plant response rating, Barnyardgrass
[15] = read-out: Plant response rating, Ryegrass, Italian
[16] = read-out: Plant response rating, Blackgrass
[17] = read-out: Plant response rating, Pigweed
[18] = read-out: Plant response rating, Kochia
[19] = read-out: Plant response rating, Wheat
[20] = read-out: Plant response rating, Galium

Compound | Corn plant response rating (crop injury, 0 = no effect, 100 = complete kill) at 500 g/ha (corn (Zea mays)) | pest or weed control at 500 g/ha [1, 12] | pest or weed control at 500 g/ha [2, 13] | pest or weed control at 500 g/ha [3, 14] | pest or weed control at 500 g/ha [4, 15] | pest or weed control at 500 g/ha [5, 16] | pest or weed control at 500 g/ha [6, 17] | pest or weed control at 500 g/ha (Kochia (Kochia scoparia); [18]) | plant injury at 500 g/ha [7, 19] | pest or weed control at 500 g/ha [8, 20] | pest or weed control at 250 g/ha (rice (Oryra sativa)) | pest or weed control at 250 g/ha [9] | pest or weed control at 250 g/ha [10] | pest or weed control at 250 g/ha [11] | further results
O=C1NC[C@H](c2cnc(C(F)(F)F)nc2)[C@H]1C(=O)Nc1cccc(F)c1F [Compound 1382] | 0% | 70% | 0% | 80% | 0% | 0% | 0% | 0% | 0% | 30% | 0% | 90% | 30% | 20% | plant injury at 125 g/ha (corn (Zea mays); 125 g ai/ha, visual rating about 10 d after treatment, read-out: Corn plant response rating (0 to 100 scale)): 0%; pest or weed control at 125 g/ha ([1]; visual rating about 10 d after treatment, read-out: Foxtail, Giant plant response rating (0 to 100 scale)): 0%; pest or weed control at 125 g/ha ([2]; visual rating about 10 d after treatment, read-out: Ragweed plant response rating (0 to 100 scale)): 0%; pest or weed control at 125 g/ha ([3]; visual rating about 10 d after treatment, read-out: Barnyardgrass plant response rating (0 to 100 scale, 0 no effect, 100 complete control)): 0%; pest or weed control at 125 g/ha ([4]; visual rating about 10 d after treatment, read-out: Ryegrass, Italian plant response rating (0 to 100 scale)): 0%; pest or weed control at 125 g/ha ([5]; visual rating about 10 d after treatment, read-out: Blackgrass plant response rating (0 to 100 scale)): 0%; pest or weed control at 125 g/ha ([6]; visual rating about 10 d after treatment, read-out: Pigweed plant response rating (0 to 100 scale)): 0%; pest or weed control at 125 g/ha (Kochia (Kochia scoparia); visual rating about 10 d after treatment, read-out: Kochia plant response rating (0 to 100 scale)): 0%; plant injury at 125 g/ha ([7]; visual rating about 10 d after treatment, read-out: Wheat plant response rating (0 to 100 scale)): 0%; pest or weed control at 125 g/ha ([8]; visual rating about 10 d after treatment, read-out: Galium plant response rating (0 to 100 scale)): 0%
Cc1ccc([C@H]2CN(C)C(=O)[C@@H]2C(=O)Nc2ccccc2F)cc1Cl [Compound 1384] | 90% | 90% | 40% | 90% | 30% | 30% | 20% | 60% | 50% | 70% | 40% | 100% | 65% | 0% | Corn plant response rating (crop injury, 0 = no effect, 100 = complete kill) at 125 g/ha (corn (Zea mays); 125 g ai/ha, visual injury after approx. 10 d, 0 to 100 scale, 0 no effect, 100 complete control): 70%; pest or weed control at 125 g/ha ([1]; visual injury after approx. 10 d, 0 to 100 scale, 0 no effect, 100 complete control, read-out: Plant response rating, Foxtail, Giant): 80%; pest or weed control at 125 g/ha ([2]; visual injury after approx. 10 d, 0 to 100 scale, 0 no effect, 100 complete control, read-out: Plant response rating, Ragweed): 40%; pest or weed control at 125 g/ha ([3]; visual injury after approx. 10 d, 0 to 100 scale, 0 no effect, 100 complete control, read-out: Plant response rating, Barnyardgrass): 90%; pest or weed control at 125 g/ha ([4]; visual injury after approx. 10 d, 0 to 100 scale, 0 no effect, 100 complete control, read-out: Plant response rating, Ryegrass, Italian): 30%; pest or weed control at 125 g/ha ([5]; visual injury after approx. 10 d, 0 to 100 scale, 0 no effect, 100 complete control, read-out: Plant response rating, Blackgrass): 0%; pest or weed control at 125 g/ha ([6]; visual injury after approx. 10 d, 0 to 100 scale, 0 no effect, 100 complete control, read-out: Plant response rating, Pigweed): 0%; pest or weed control at 125 g/ha (Kochia (Kochia scoparia); visual injury after approx. 10 d, 0 to 100 scale, 0 no effect, 100 complete control, read-out: Plant response rating, Kochia): 40%; plant injury at 125 g/ha ([7]; visual injury after approx. 10 d, 0 to 100 scale, 0 no effect, 100 complete control, read-out: Plant response rating, Wheat): 0%; pest or weed control at 125 g/ha ([8]; visual injury after approx. 10 d, 0 to 100 scale, 0 no effect, 100 complete control, read-out: Plant response rating, Galium): 30%
